From patent US10065941B2, “Aminotriazine derivative and pharmaceutical composition comprising the same” (Shionogi & Co., Ltd., priority 2013, dated 2018)

Target: human P2X3 receptor (Homo sapiens (Human), UniProt P56373)
Assay: Evaluation of human P2X3 receptor inhibitory activity (Test Example 1)
Assay type: cell-based
Settings: C6BU-1 cell transfected with human P2X3 receptor gene, FLIPR 384
Method: Stably expressing cell line (C6BU-1 cell transfected with human P2X3 receptor gene (GenBank accession number Y07683) was used. The cells were seeded in a 384-well PDL-coated microtiter plate at a concentration of 3000 cells/well and cultured in the medium (8.3% fetal bovine serum, 8.3% horse serum, and 1% antibiotic and antifungal in DMEM) for one day at 37° C. under 5% carbon dioxide atmosphere. The medium was replaced with 4 μM Fluo-3-AM solution (20 mM HEPES, 137 mM NaCl, 2.7 mM KCl, 0.9 mM MgCl2, 5.0 mM CaCl2, 5.6 mM D-glucose, 2.5 mM probenecid, 0.5% BSA, and 0.04% Pluronic F-127, pH 7.5) and incubated at 37° C. under 5% dioxide carbon atmosphere for one hour. The plate was washed with washing buffer (20 mM HEPES, 137 mM NaCl, 2.7 mM KCl, 0.9 mM MgCl2, 5.0 mM CaCl2, 5.6 mM D-glucose, 2.5 mM probenecid, pH7.5), and each well was added with 20 μL of the washing buffer. The plate was placed in High-Throughput Screening System FLIPR 384 (Molecular Device Co.). Measurement of fluorescence intensity by FLIPR 384 was started, and 20 μL of DMSO solutions containing different concentrations of the test compound as prepared by dilution with dilution buffer (20 mM HEPES, 137 mM NaCl, 2.7 mM KCl, 0.9 mM MgCl2, 5.0 mM CaCl2, 5.6 mM D-glucose, 2.5 mM probenecid, 0.1% Pluronic F-127, pH7.5) were dispensed to each well through the built-in automatic dispenser. Five minutes after, 150 nM ATP solution (25 μL) prepared by dilution with the dilution buffer was dispensed through the built-in automatic dispenser, and the measurement of fluorescence intensity was continued for 4 min. For each well, the specific maximum fluorescence intensity was calculated as the ratio of the maximum fluorescence intensity after addition of the ATP solution to the fluorescence intensity at the starting of the measurement. […] The specific maximum fluorescence intensity and IC50 were calculated using Spotfire (Science & Technology Systems, Inc.)

Chain of human P2X3 receptor (P56373 whole entry): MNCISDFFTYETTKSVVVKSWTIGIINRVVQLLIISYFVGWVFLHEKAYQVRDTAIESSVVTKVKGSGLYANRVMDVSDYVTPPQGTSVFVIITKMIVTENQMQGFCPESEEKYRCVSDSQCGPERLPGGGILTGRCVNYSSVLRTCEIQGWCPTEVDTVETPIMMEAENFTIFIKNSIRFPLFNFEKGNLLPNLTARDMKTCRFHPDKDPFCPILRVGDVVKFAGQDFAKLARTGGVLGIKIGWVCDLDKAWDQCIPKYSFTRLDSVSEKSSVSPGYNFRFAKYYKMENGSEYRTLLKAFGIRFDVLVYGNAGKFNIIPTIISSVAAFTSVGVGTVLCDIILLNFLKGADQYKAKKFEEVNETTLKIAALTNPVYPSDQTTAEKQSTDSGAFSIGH

| SMILES | IC50 |
| --- | --- |
| COC(=O)CCn1c(=O)[nH]/c(=N\c2ccc(Oc3ccccn3)c(F)c2)n(Cc2ccc(C)cc2)c1=O [Compound R-292] | 4 nM |
| CCc1oc2ccc(/N=c3\[nH]c(=O)n([C@H]4C[C@@H](C(=O)O)C4)c(=O)n3Cc3ccc(Cl)cc3)cc2c1C [Compound R-024] | 18 nM |
| CC(=O)c1ccc(Oc2ccc(/N=c3\[nH]c(=O)n(CCC(=O)O)c(=O)n3Cc3ccc(Cl)cc3)cc2)nc1 [Compound R-305] | 7 nM |
| C=C(CO)Cn1c(=O)[nH]/c(=N\c2ccc(Oc3ccccn3)cc2)n(Cc2ccc(Cl)cc2)c1=O [Compound R-254, 1-(4-chlorobenzyl)-3-(2-hydroxymethyl-2-propenyl)-6-[4-(2-pyridyloxy)phenylimino]-1,3,5-triazinane-2,4-dione] | 3 nM |
| COC(=O)[C@@H](C)Cn1c(=O)[nH]/c(=N\c2ccc(Oc3ccccn3)cc2)n(C[C@H]2CC[C@H](C)CC2)c1=O [Compound I-142] | 7 nM |
| C[C@@H](Cn1c(=O)[nH]/c(=N\c2ccc(Oc3ncns3)cc2)n(Cc2ccc(Cl)cc2)c1=O)C(=O)O [Compound R-195] | 9 nM |
| O=C(O)C1(Cn2c(=O)[nH]/c(=N\c3ccc(Oc4ncccc4F)cc3)n(Cc3ccc(Cl)cc3)c2=O)COC1 [Compound I-050] | 28 nM |
| COC(=O)CCn1c(=O)[nH]/c(=N\c2ccc(Oc3ccc(C(C)O)cn3)cc2)n(Cc2ccc(Cl)cc2)c1=O (centres unmarked) [Compound R-304] | 4 nM |
| CCn1c(=O)[nH]/c(=N\c2ccc(Oc3cc(Cl)c(C(=O)O)cn3)cc2)n(Cc2ccc(Cl)cc2)c1=O [Compound R-054] | 26 nM |
| Cc1ccc(Cn2c(=O)n(C[C@H](C)C(=O)O)c(=O)[nH]/c2=N\c2ccc(Oc3ccc(C(C)O)cn3)cc2)cc1 (some centres unmarked) [Compound I-262] | 7 nM |
| CC(C)(Cn1c(=O)[nH]/c(=N\c2ccc(Oc3cnccn3)cc2)n(Cc2ccc(Cl)cc2)c1=O)C(=O)O [Compound R-020] | 13 nM |
| COC(=O)[C@H](C)Cn1c(=O)[nH]/c(=N\c2ccc(Oc3ccccn3)cc2)n(Cc2ccc(C)cc2)c1=O [Compound I-140] | 3 nM |
| C[C@@H](Cn1c(=O)[nH]/c(=N\c2ccc(Oc3ccc4nccn4n3)cc2)n(Cc2ccc(Cl)cc2)c1=O)C(=O)O [Compound R-231] | 5 nM |
| CCOC(=O)C[C@H](O)Cn1c(=O)[nH]/c(=N\c2ccc3oc(CC)c(C)c3c2)n(Cc2ccc(Cl)cc2)c1=O [Compound R-172] | 33 nM |
| COC(=O)[C@@H](C)Cn1c(=O)[nH]/c(=N\c2ccc(Oc3cc(C)ccn3)cc2)n(Cc2ccc(Cl)cc2)c1=O [Compound I-076] | 22 nM |
| COC(=O)[C@H](C)[C@H](C)n1c(=O)[nH]/c(=N\c2ccc(Oc3cnc(Cl)cn3)cc2)n(Cc2ccc(Cl)cc2)c1=O [Compound R-159] | 18 nM |
| CCc1[nH]c2ccc(/N=c3\[nH]c(=O)n(CC(C)(C)C(=O)OC)c(=O)n3Cc3ccc(Cl)cc3)cc2c1C [Compound R-069] | 51 nM |
| C[C@@H](Cn1c(=O)[nH]/c(=N\c2ccc(Oc3ccc(Cl)nn3)cc2)n(Cc2ccc(Cl)cc2)c1=O)C(=O)O [Compound R-197] | 7 nM |
| C[C@@H](C(=O)O)[C@H](C)n1c(=O)[nH]/c(=N\c2ccc(Oc3ccccn3)cc2)n(Cc2ccc(Cl)cc2)c1=O [Compound I-147] | 7 nM |
| COC(=O)[C@@H](C)Cn1c(=O)[nH]/c(=N\c2ccc(Oc3ccc(Cl)cn3)cc2)n(Cc2ccc(C)cc2)c1=O [Compound I-097] | 5 nM |
| COC(=O)[C@H](C)[C@H](C)n1c(=O)[nH]/c(=N\c2ccc(Oc3cc(F)nc(F)c3)cc2)n(Cc2ccc(Cl)cc2)c1=O [Compound R-156] | 35 nM |
| COCc1ccc(Oc2ccc(/N=c3\[nH]c(=O)n(C[C@H](C)C(=O)OC)c(=O)n3Cc3ccc(Cl)cc3)cc2)nc1 [Compound I-247] | 6 nM |

| SMILES | IC50 |
| --- | --- |
| CC(=O)c1ccc(Oc2ccc(/N=c3\[nH]c(=O)n(C[C@H](C)C(=O)O)c(=O)n3Cc3ccc(C)cc3)cc2)nc1 [Compound I-260] | 5 nM |
| COc1cccnc1Oc1ccc(/N=c2\[nH]c(=O)n(CC(C)(C)C(=O)O)c(=O)n2Cc2ccc(Cl)cc2)cc1 [Compound I-164] | 29 nM |
| C[C@@H](Cn1c(=O)[nH]/c(=N\c2ccc(Oc3ccccn3)cc2)n(CC2CCC3(CC2)CC3)c1=O)C(=O)O [Compound I-202] | 8 nM |
| CCn1c(=O)[nH]/c(=N\c2ccc(Oc3ccc(Cl)nc3C(=O)O)cc2)n(Cc2ccc(Cl)cc2)c1=O [Compound R-169] | 304 nM |
| Cc1ccc(Oc2ccc(/N=c3\[nH]c(=O)n(C[C@H](C)C(=O)O)c(=O)n3Cc3ccc(Cl)cc3)cc2F)nn1 [Compound R-180] | 7 nM |
| Cc1ccc(Cn2c(=O)n(CCC(=O)O)c(=O)[nH]/c2=N\c2ccc(Oc3ccc(Cl)cn3)cc2)cc1 [Compound R-285] | 6 nM |
| CCOC(=O)[C@H]1C[C@@H](n2c(=O)[nH]/c(=N\c3ccc(Oc4ccccn4)cc3)n(Cc3ccc(Cl)cc3)c2=O)C1 [Compound I-171] | 9 nM |
| COC(=O)CCn1c(=O)[nH]/c(=N\c2ccc(Oc3cccc(F)n3)cc2)n(Cc2ccc(CF)cc2)c1=O [Compound R-286] | 6 nM |
| COC(=O)C(C)(C)Cn1c(=O)[nH]/c(=N\c2ccc(Oc3cncc(Cl)c3)cc2)n(Cc2ccc(Cl)cc2)c1=O [Compound R-080] | 13 nM |
| CCc1[nH]c2ccc(/N=c3\[nH]c(=O)n(C[C@H](C)C(=O)O)c(=O)n3Cc3ccc(Cl)cc3)cc2c1C [Compound R-074] | 13 nM |
| C[C@@H](Cn1c(=O)[nH]/c(=N\c2ccc(Oc3ccc(CO)nc3)cc2)n(Cc2ccc(Cl)cc2)c1=O)C(=O)O [Compound R-155] | 10 nM |
| COC(=O)C[C@@H](C)n1c(=O)[nH]/c(=N\c2ccc(Oc3ncccc3F)cc2)n(Cc2ccc(Cl)cc2)c1=O [Compound I-161] | 10 nM |
| COC(=O)[C@@H](C)Cn1c(=O)[nH]/c(=N\c2ccc(Oc3cc(OC)ccn3)cc2)n(Cc2ccc(Cl)cc2)c1=O [Compound I-139] | 10 nM |
| CCc1[nH]c2ccc(/N=c3\[nH]c(=O)n(CC(C)(C)C(=O)O)c(=O)n3Cc3ccc(Cl)cc3)cc2c1C [Compound R-075] | 13 nM |
| C[C@@H](Cn1c(=O)[nH]/c(=N\c2ccc(Oc3ccc(F)cn3)cc2)n(Cc2ccc(Cl)s2)c1=O)C(=O)O [Compound I-274] | 5 nM |
| CC(C)n1c(=O)[nH]/c(=N\c2ccc(Oc3cccc(C(=O)O)n3)c(Cl)c2)n(Cc2ccc(Cl)cc2)c1=O [Compound R-012] | 5 nM |
| CC(C)(Cn1c(=O)[nH]/c(=N\c2ccc(Oc3cc(C(F)(F)F)ccn3)cc2)n(Cc2ccc(Cl)cc2)c1=O)C(=O)O [Compound I-092] | 68 nM |
| Cc1cnc(Oc2ccc(/N=c3\[nH]c(=O)n(CC(C)(C)C(=O)O)c(=O)n3Cc3ccc(Cl)cc3)cc2)s1 [Compound R-153] | 8 nM |
| Cc1ccc(Oc2ccc(/N=c3\[nH]c(=O)n(C[C@H](C)C(=O)O)c(=O)n3Cc3ccc(Cl)cc3)cc2)nc1 [Compound I-054] | 5 nM |
| COC(=O)[C@@H](C)Cn1c(=O)[nH]/c(=N\c2ccc(Oc3ccc(C)cn3)cc2)n(Cc2ccc(C)cc2)c1=O [Compound I-108] | 4 nM |
| C[C@@H](C(=O)O)[C@H](C)n1c(=O)[nH]/c(=N\c2ccc(Oc3cnc(Cl)cn3)cc2)n(Cc2ccc(Cl)cc2)c1=O [Compound R-162] | 6 nM |
| CO[C@H](Cn1c(=O)[nH]/c(=N\c2ccc(Oc3ccccn3)cc2)n(Cc2ccc(Cl)cc2)c1=O)C(=O)O [Compound I-200] | 42 nM |
